Laboratory results published in patent publication US20050080113A1, “Medicinal compositions” (priority 2001, published 2005).

What was measured:
[1] = test system: TNF-α production in THP-1 cells; test: Measurement of inhibitory activity of TNF-α production (LPS-stimulated THP-1 cells, ELISA), Reference Example K 2; format: cell-based; settings: Homo sapiens, Reference Example H compounds, LPS 5 μg/mL, 4 hours, read-out: IC50 (inhibition of TNF-α production)
Procedure: THP-1 cells cultured in a PRMI 1640 medium (Life Technologies, Inc., USA) containing 1% inactivated fetal bovine serum (Life Technologies, Inc.) and 10 mM HEPES (pH 7.5) were inoculated on a 96 well plate to give 1×10^5 cells/well, then, 1 μL of a sample compound dissolved in DMSO was added. After incubation for 1 hour at 37° C. in a CO2 incubator, LPS (Wako Pure Chemical Industries Ltd.) was added to give a final concentration of 5 μg/mL. After incubation for 4 hours at 37° C. in a CO2 incubator, the supernatant was obtained by centrifugal separation. The TNF-α concentration in the supernatant was measured by ELISA (R&D Systems, Quantikine Kit). The concentration (IC50 value) of a sample compound necessary for inhibiting 50% of TNF-α production was calculated by PRISM 2.01 (GraphPad Software).

[2] = test system: TNF-α production; test: Measurement of inhibiting activity of TNF-α production in LPS-stimulated THP-1 cells, ELISA (Reference Example F 3); format: cell-based; settings: Homo sapiens, LPS 5 μg/mL, 4 hours, ELISA (R&D System)
Procedure: Measurement of Inhibiting Activity of TNF-α Production
After THP-1 cells which had been cultured in PRMI 1640 medium (manufactured by Life Technologies, Inc.) containing 1% non-activated bovine fetal serum (manufactured by Life Technologies, Inc., U.S.A.) and 10 mM HEPES (pH 7.5) seeded on a 96 well plate to 1×10^5 cells/well, 1 μL test compound dissolved in DMSO was added to there. After incubation at 37° C. for 1 hour in a CO2 incubator, LPS (Wako Pure Chemicals) was added to the final concentration 5 μg/mL. After cultured at 37° C. for 4 hours in a CO2 incubator, the supernatant was obtained by centrifugation. The concentration of TNF-α in the supernatant was measured with ELISA (R&D System, Quantikine Kit). The concentration (IC50 value) necessary for inhibiting TNF-α production by 50% was calculated by PRIMS 2.01 (Graphpad Software).

[3] = target: T1, human p38 MAP kinase (Homo sapiens, UniProt Q16539); test: Measurement of the p38 MAP kinase inhibitory activity, 32P uptake into Myelin Basic Protein (Reference Example F 2); format: biochemical; settings: active form p38 MAP kinase, 30° C. 60 minutes, read-out: IC50 (p38 MAP kinase inhibitory activity, uptake of 32P into acid insoluble fraction)
T1 construct: made in house; host or cells: Sf-21 insect cells, baculovirus (BAC-HP38 co-infected with BAC-caMKK3)
T1 sequence (Q16539 whole entry): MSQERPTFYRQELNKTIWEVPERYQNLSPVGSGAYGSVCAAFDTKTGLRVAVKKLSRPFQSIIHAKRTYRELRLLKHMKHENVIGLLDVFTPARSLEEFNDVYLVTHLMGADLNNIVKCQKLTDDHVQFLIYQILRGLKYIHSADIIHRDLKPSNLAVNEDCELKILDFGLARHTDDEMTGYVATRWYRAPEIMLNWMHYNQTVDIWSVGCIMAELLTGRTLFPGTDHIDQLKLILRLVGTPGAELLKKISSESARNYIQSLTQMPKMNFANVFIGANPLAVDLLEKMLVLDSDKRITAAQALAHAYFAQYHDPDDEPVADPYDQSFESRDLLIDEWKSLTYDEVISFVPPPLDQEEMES
Procedure: The genetic manipulations described below were according to the methods described in the book (Maniatis et al., Molecular Cloning, Cold Spring Harbor Laboratory, 1989) or a method described in the protocol attached to the reagent.
(§1) (1) Cloning of Human p38 MAP Kinase Gene and Preparation of Recombinant Baculovirus
Cloning of human p38 MAP kinase gene was performed by a PCR method using a primer set P38 U: 5′-[…]-3′ [SEQ ID NO:9] and PAG-L: 5′-[…]-3′ [SEQ ID NO:10] made by reference to the base sequence of p38 MAP kinase gene reported by Han et al. (Science 265 (5173), 808 811 (1994)) and employing kidney cDNA (Toyobo, QUICK-Clone cDNA) as a template.
A PCR reaction was performed by a Hot Start method using AmpliWax PCR Gem 100 (Takara Shuzo). As the lower mixed solution, 2 μL 10×LA PCR Buffer, 3 μL 2.5 mM dNTP solution, each 2.5 μL of 12.5 μM primer solution, and 10 μL sterile distilled water were mixed. As the upper mixed solution, 1 μL human cardiac cDNA (1 ng/mL) as a template, 3 μL 10×LA PCR Buffer, 1 μL 2.5 mM dNTP solution, 0.5 μL TaKaRa LA Taq DNA polymerase (Takara Shuzo), and 24.5 μL sterile distilled water were mixed. One AmpliWax PCR Gem 100 (Takara Shuzo) was added to the prepared lower mixed solution to treat at 70° C. for 5 minutes and for 5 minutes in an ice and, thereafter, the upper mixed solution was added to prepare a reaction solution for PCR. A tube containing the reaction solution was set at a thermal cycler (Perkin Elmer), which was treated at 95° C. for 2 minutes. Further, after repeating 35 times a cycle of 15 seconds at 95° C. and 2 minutes at 68° C., treatment was performed at 72° C. for 8 minutes. The resulting PCR product was subjected to agarose gel (1%) electrophoresis, 1.1 kb DNA fragment containing p38 MAP kinase gene was recovered from the gel and, thereafter, which was inserted into pT7Blue-T vector (Takara Shuzo) to make the plasmid pHP38.
The 4.8 kb XhoI-KpnI fragment of the plasmid pFASTBAC1 (CIBCOBRL) and the 1.1 kb XhoI-Kpn fragment of the above plasmid pHP38 were ligated to make the plasmid pFBHP38.
The plasmid pFBHP38 and BAC-TO-BAC Baculovirus Expression System (GIBCOBRL) were used to prepare the recombinant Baculovirus virusstock BAC-HP38.
(§2) (2) Cloning of Human MKK3 Gene and Preparation of Recombinant Baculovirus
Cloning of human MKK3 gene was performed by a PCR method using a primer set MKK-U: 5′-[…]-3′ [SEQ ID NO:11] and MKK-L: 5′-[…]-3′ [SEQ ID NO:12] made by reference to the base sequence of MKK3 gene reported by Derijard, B. et al., Science 267 (5198), 682 685 (1995) and using kidney cDNA (Toyobo, QUICK-Clone cDNA).
A PCR reaction was performed by a Hot Start method using AmpliWax PCR Gem 100 (Takara Shuzo). As the lower mixed solution, 2 μL 10×LA PCR Buffer, 3 μL 2.5 mM dNTP solution, each 2.5 μL of 12.5 μM primer solution, and 10 μL sterile distilled water were mixed. As the upper mixed solution, 1 μL human kidney cDNA (1 ng/mL), 3 μL 10×LA PCR Buffer, 1 μL 2.5 mM dNTP solution, 0.5 μL TaKaRa LA taq DNA polymerase (Takara Shuzo) and 24.5 μL sterile distilled water were mixed. One AmpliWax PCR Gem 100 (Takara Shuzo) was added to the prepared lower mixed solution to treat at 70° C. for 5 minutes and for 5 minutes in ice and, thereafter, the upper mixed solution was added to prepare a reaction solution for PCR. A tube containing the reaction solution was set at a thermal cycler (Perkin Elmer), which was treated at 95° C. for 2 minutes. Further, after repeating 35 times a cycle of 15 seconds at 95° C. and 2 minutes at 68° C., treatment was performed at 72° C. for 8 minutes. The resulting PCR product was subjected to agarose gel (1%) electrophoresis, 1.0 kb DNA fragment containing MKK3 gene was recovered from the gel and, thereafter, which was inserted into pT7Blue-T vector (Takara Shuzo) to make the plasmid pHMKK3. […]

[4] = target: T1, human p38 MAP kinase; test: Inhibition of active type p38 MAP kinase (32P incorporation into Myelin Basic Protein), Reference Example K 1; format: biochemical; settings: Reference Example H compounds, 30° C., 60 minutes
Procedure: Genetic manipulation methods described below are based on methods described in Maniatis et al., Molecular Cloning, ColdSpring Harbor Laboratory, 1989, and the appended reagent protocol.
as §1
Cloning of human p38 MAP kinase gene was conducted by a PCR method using primer set p38 U: 5′-[…] C-3′ [SEQ ID No. 1] and PAG-L: 5′-[…]-3′ [SEQ ID No. 2] synthesized referring to the nucleotide sequence of p38 MAP kinase gene of Han et al., Science 265 (5173), 808 811 (1994), utilizing kidney cDNA (QUICK-Clone cDNA, manufactured by Toyobo Co., Ltd.) as a template.
A PCR reaction was performed according to Hot Start method using AmpliWax PCR Gem 100 (Takara Shuzo Co., Ltd.). For preparing lower layer mixed liquid, 2 μL of 10×LA PCR Buffer, 3 μL of 2.5 mM dNTP solution, each 2.5 μL of 12.5 μM primer solution, and 10 μL of sterile distilled water were mixed. For preparing upper layer mixed liquid, 1 μL of human heart cDNA (1 ng/mL) as a template, 3 μL of 10×LA PCR Buffer, 1 μL of 2.5 mM dNTP solution, 0.5 μL of TaKaRa LA Taq DNA polymerase (Takara Shuzo Co., Ltd.) and 24.5 μL of sterile distilled water were mixed. To the prepared lower mixed liquid was added one AmpliWax PCR Gem 100 (Takara Shuzo Co., Ltd.), treated for 5 minutes at 70° C. and 5 minutes in ice, then, the upper mixed liquid was added, to prepare a reaction solution for PCR. A tube filled with the reaction solution was set on Thermal Cycler (Perkin Elmer), then, treated for 2 minutes at 95° C. Further, a cycle including 15 seconds at 95° C. and 2 minutes at 68° C. was repeated 35 times, then, treated for 8 minutes at 72° C. The resulted PCR product was subjected to agarose gel (1%) electrophoresis, a 1.1 kb DNA fragment containing a p38 MAP kinase gene was recovered from the gel, then, pT7Blue-T vector (Takara Shuzo Co., Ltd.) was inserted to prepare a plasmid pHP38.
4.8 kb XhoI-KpnI fragment of plasmid pFASTBAC1 (CIBCOBRL) and 1.1 kb XhoI-Kpn fragment of the above-mentioned plasmid pHP38 were ligated to construct plasmid pFBHP38.
Plasmid pFBHP38 and BAC-TO-BAC Baculovirus Expression System (GIBCOBRL) were used to prepare virus stock BAC-HP38 of recombinant baculovirus.
as §2
Cloning of human MKK3 gene was conducted by a PCR method using primer set MKK-U: 5′-[…] 3′ [SEQ ID No. 3] and MKK-L: 5′-[…]-3′ [SEQ ID No. 4] synthesized referring to the nucleotide sequence of MKK3 gene of Derijard, B. et al., Science 267 (5198), 682 685 (1995), utilizing kidney cDNA (QUICK-Clone cDNA, manufactured by Toyobo Co., Ltd.) as a template.
A PCR reaction was performed according to Hot Start method using AmpliWax PCR Gem 100 (Takara Shuzo Co., Ltd.). […]

SMILES | IC50 [1] [nM] | IC50 [2] [nM] | IC50 [3] [nM] | IC50 [4] [nM] | melting point [°C]
Cc1cccc(-c2nc(N(C)C(=O)c3ccc(C)nc3)sc2-c2ccnc(NC3CCCC3)c2)c1 [46-4] | 82 |  |  |  | 
COc1ccc(-c2nc(N)sc2-c2ccnc(NC(=O)c3ccccc3)c2)cc1 [D 4, N-[4-[2-amino-4-(4-methoxyphenyl)-1,3-thiazol-5-yl]-2-pyridyl]benzamide] |  | 14 | 20 |  | 
CCC(=O)Nc1cc(-c2sc(-c3ccc(S(C)(=O)=O)cc3)nc2-c2cccc(Cl)c2)ccn1 [58-7] | 21 |  |  | 8.4 | 224 to 225
COc1ccc(-c2nc(NC(=O)c3cccnc3)sc2-c2ccnc(NC(=O)c3cccnc3)c2)cc1 [D 3, N-[4-(4-methoxyphenyl)-5-[2-[(3-pyridylcarbonylamino)]-4-pyridyl]-1,3-thiazol-2-yl]nicotinamide] |  | 26 | 23 |  | 
Cc1cccc(-c2nc(N)sc2-c2ccnc(NC3CCCCC3)c2)c1 [H 34-2, [5 (2 cyclohexylamino-4-pyridyl)-4 (3 methylphenyl)-1,3thiazol-2 yl]amine] | 2 |  |  | 9.9 | 168 to 169
CCc1nc(-c2cccc(Cl)c2)c(-c2ccnc(NC3CCCCC3)c2)s1 [36-10] | 55 |  |  | 1.1 | 106 to 107
Cc1cc(C)cc(-c2nc(N)sc2-c2ccnc(NCc3ccccc3)c2)c1 [D 6, N-[4-[2-amino-4-(3,5-dimethylphenyl)-1,3-thiazol-5-yl]-2-pyridyl]benzylamine] |  | 140 | 23 |  | 
CCc1nc(-c2cccc(Cl)c2)c(-c2ccnc(NC(C)=O)c2)s1 [H 30-2, N-[4-[4-(3-chlorophenyl)-2-ethyl-1,3-thiazol-5-yl]-2-pyridyl]acetamide] | 120 |  |  | 10 | 149 to 150
